Data published in ChEMBL document CHEMBL6109119, “Chemoproteomic Profiling of C. albicans for Characterization of Antifungal Kinase Inhibitors” (J Med Chem, 2025).
Calls of active or inactive are those of the source. No cut-off for these calls is given here.

Experiments:
[1] = target: T1, Mitogen-activated protein kinase 14 (Homo sapiens, UniProt Q16539)
[2] = target: T2, Serine/threonine protein kinase YCK2 (Candida albicans (strain SC5314 / ATCC MYA-2876) (Yeast), UniProt A0A1D8PKB4)
T2 sequence (A0A1D8PKB4 whole entry): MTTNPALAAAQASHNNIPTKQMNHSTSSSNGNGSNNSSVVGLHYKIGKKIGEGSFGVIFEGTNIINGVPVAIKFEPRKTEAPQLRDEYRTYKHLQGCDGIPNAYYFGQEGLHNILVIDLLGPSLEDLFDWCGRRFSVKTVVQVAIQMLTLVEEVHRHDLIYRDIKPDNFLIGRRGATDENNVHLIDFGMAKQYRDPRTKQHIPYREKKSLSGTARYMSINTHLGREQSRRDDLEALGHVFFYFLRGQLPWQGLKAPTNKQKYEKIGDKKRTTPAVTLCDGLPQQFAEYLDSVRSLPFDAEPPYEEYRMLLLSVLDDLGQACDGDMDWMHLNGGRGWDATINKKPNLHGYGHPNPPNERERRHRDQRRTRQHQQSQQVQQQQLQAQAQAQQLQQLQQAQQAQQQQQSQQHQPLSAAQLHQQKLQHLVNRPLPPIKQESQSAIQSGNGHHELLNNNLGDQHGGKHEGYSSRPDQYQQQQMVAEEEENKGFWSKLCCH

[3] = target: T3, Casein kinase I isoform delta (Homo sapiens, UniProt P48730); assay type: cell-based, HEK293
Target sequence in this assay (P48730 whole entry, canonical isoform): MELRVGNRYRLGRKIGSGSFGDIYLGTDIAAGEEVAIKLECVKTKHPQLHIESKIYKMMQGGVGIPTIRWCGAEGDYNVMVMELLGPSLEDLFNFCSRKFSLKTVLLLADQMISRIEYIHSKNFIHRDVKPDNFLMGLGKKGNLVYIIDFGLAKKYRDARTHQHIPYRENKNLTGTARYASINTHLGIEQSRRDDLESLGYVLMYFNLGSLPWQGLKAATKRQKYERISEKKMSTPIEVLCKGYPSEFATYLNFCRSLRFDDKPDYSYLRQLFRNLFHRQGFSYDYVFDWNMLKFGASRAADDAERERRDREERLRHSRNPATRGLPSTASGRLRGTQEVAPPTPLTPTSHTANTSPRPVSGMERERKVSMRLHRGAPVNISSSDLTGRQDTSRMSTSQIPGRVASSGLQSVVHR

[4] = target: T4, Casein kinase I isoform epsilon (Homo sapiens, UniProt P49674); assay type: cell-based, HEK293
Target sequence in this assay (P49674 whole entry, canonical isoform): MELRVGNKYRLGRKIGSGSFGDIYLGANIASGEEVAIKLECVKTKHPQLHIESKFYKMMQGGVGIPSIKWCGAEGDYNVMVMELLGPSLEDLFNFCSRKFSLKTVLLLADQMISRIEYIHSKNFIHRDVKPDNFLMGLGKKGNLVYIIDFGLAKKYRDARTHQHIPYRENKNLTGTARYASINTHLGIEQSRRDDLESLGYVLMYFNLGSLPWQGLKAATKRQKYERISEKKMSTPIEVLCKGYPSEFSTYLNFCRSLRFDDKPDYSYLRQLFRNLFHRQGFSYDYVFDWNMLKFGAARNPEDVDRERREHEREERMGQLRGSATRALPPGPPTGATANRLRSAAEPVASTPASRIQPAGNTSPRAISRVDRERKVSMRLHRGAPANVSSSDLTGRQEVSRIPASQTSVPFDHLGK

[5] = target: T1, Mitogen-activated protein kinase 14; assay: Inhibition of human P38alpha transfected in HEK293 cells using NanoBRET NanoGlo substrate incubated for 2 hrs in presence of K4 tracer by NanoBRET assay; assay type: cell-based
[6] = target: T4, Casein kinase I isoform epsilon; assay: Inhibition of human CK1epsilon transfected in HEK293 cells at 10 uM using NanoBRET NanoGlo substrate incubated for 2 hrs in presence of K8 tracer by NanoBRET assay relative to control; assay type: cell-based
Target sequence in this assay (P49674 whole entry, looked up, canonical isoform): as the sequence (P49674 whole entry, canonical isoform) above

[7] = target: Casein kinase I isoform alpha (Homo sapiens, UniProt P48729)
Chain of Casein kinase I isoform alpha (P48729 whole entry, canonical isoform): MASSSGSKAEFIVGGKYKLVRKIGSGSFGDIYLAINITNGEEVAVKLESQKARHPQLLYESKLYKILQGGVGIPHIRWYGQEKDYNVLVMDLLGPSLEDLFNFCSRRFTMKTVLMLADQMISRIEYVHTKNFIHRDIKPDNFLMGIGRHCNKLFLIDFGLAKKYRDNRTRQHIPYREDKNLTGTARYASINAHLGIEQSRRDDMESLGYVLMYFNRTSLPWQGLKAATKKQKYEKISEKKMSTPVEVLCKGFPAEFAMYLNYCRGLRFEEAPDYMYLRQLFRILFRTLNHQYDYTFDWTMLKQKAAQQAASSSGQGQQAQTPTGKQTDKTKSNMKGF

[8] = target: T2, Serine/threonine protein kinase YCK2; assay type: cell-based, HEK293
Candida albicans [9] = assay: Antifungal activity against wild type Candida albicans CaSS1 at 100 uM; assay type: functional, organism-based
Candida albicans [10] = assay: Antifungal activity against Candida albicans harboring tetO-YCK2/yck2 mutant assessed as inhibition of fungal growth at 100 uM in absence of doxycyclin; assay type: functional, organism-based
Candida albicans [11] = assay: Antifungal activity against Candida albicans harboring tetO-YCK2/yck2 mutant assessed as inhibition of fungal growth at 100 uM in presence of doxycyclin; assay type: functional, organism-based
Candida albicans [12] = assay: Antifungal activity against Candida albicans harboring cdr1mutant/mutant assessed as inhibition of fungal growth; assay type: functional, organism-based
Candida albicans [13] = assay: Antifungal activity against Candida albicans harboring cdr2mutant/mutant assessed as inhibition of fungal growth; assay type: functional, organism-based
Candida albicans [14] = assay: Antifungal activity against Candida albicans harboring mdr1mutant/mutant assessed as inhibition of fungal growth; assay type: functional, organism-based
Candida albicans [15] = assay: Antifungal activity against Candida albicans harboring flu1mutant/mutant assessed as inhibition of fungal growth; assay type: functional, organism-based
Candida albicans [16] = assay: Antifungal activity against Candida albicans harboring tetO-ERG6/erg6mutant assessed as inhibition of fungal growth in presence of doxycyclin; assay type: functional, organism-based
Candida albicans [17] = assay: Binding affinity to Candida albicans Hrr25 assessed as target engagement at 0.1 to 10 uM by MIB/MS competition assay; settings: dose 0.1-10 µM
Candida albicans [18] = assay: Binding affinity to Candida albicans Hog1 assessed as target engagement at 0.1 to 10 uM by MIB/MS competition analysis; settings: dose 0.1-10 µM
[19] = target: T4, Casein kinase I isoform epsilon; assay: Binding affinity to human CK1epsilon transfected in HEK293 cells at 0.1 to 10 uM by MIB/MS competition assay; assay type: cell-based; settings: dose 0.1-10 µM
Target sequence in this assay (P49674 whole entry, looked up, canonical isoform): as the sequence (P49674 whole entry, canonical isoform) above

[20] = target: T3, Casein kinase I isoform delta; assay: Binding affinity to human CK1 delta transfected in HEK293 cells at 0.1 to 10 uM by MIB/MS competition assay; assay type: cell-based; settings: dose 0.1-10 µM
Target sequence in this assay (P48730 whole entry, looked up, canonical isoform): as the sequence (P48730 whole entry, canonical isoform) above

[21] = target: Serine/threonine-protein kinase N3 (Homo sapiens) (UniProt Q6P5Z2); assay: Binding affinity to human PKN3 transfected in HEK293 cells at 0.1 to 10 uM by MIB/MS competition assay; assay type: cell-based; settings: dose 0.1-10 µM
Chain of Serine/threonine-protein kinase N3 (Homo sapiens) (Q6P5Z2 whole entry, looked up): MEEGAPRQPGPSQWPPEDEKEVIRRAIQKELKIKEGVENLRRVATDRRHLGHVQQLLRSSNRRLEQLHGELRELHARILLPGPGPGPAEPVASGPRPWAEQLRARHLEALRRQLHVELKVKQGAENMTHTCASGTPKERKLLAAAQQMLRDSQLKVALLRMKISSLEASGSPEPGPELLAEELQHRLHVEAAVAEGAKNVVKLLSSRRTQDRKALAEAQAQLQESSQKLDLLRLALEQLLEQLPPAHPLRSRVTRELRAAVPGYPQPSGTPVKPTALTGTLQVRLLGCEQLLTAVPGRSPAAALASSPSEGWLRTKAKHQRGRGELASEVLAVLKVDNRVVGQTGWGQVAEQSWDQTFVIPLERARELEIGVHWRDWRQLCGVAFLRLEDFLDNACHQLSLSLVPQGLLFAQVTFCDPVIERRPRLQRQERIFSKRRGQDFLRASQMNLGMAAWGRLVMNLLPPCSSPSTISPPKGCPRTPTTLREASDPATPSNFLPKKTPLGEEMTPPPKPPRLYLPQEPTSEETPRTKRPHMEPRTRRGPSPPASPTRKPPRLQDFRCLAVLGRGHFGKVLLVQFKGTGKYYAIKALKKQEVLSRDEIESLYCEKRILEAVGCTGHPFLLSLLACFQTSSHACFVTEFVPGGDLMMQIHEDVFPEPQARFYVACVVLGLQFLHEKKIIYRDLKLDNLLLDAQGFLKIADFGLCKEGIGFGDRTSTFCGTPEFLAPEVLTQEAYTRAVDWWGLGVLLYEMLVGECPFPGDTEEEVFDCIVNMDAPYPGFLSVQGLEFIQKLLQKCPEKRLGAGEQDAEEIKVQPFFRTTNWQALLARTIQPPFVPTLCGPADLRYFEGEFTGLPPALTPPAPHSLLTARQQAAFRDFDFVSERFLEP

[22] = target: Receptor-interacting serine/threonine-protein kinase 2 (Homo sapiens) (UniProt O43353); assay: Binding affinity to human RIPK2 transfected in HEK293 cells at 0.1 to 10 uM by MIB/MS competition assay; assay type: cell-based; settings: dose 0.1-10 µM
Chain of Receptor-interacting serine/threonine-protein kinase 2 (Homo sapiens) (O43353 whole entry): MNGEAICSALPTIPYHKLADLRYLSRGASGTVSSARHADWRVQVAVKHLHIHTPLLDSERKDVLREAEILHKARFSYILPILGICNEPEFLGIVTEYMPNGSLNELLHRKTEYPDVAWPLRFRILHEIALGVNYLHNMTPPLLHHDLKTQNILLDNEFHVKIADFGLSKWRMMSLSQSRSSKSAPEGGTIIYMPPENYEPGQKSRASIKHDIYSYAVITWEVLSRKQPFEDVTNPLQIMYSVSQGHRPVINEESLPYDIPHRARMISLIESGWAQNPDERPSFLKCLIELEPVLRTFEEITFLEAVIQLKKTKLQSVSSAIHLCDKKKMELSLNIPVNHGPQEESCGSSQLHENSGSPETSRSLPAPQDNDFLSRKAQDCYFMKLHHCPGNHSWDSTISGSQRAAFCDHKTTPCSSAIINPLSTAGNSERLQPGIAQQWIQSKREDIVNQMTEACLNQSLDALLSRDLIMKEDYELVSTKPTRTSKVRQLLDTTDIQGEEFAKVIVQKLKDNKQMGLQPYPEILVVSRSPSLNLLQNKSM

[23] = target: Mitogen-activated protein kinase 11 (Homo sapiens) (UniProt Q15759); assay: Binding affinity to human P38beta transfected in HEK293 cells at 0.1 to 10 uM by MIB/MS competition assay; assay type: cell-based; settings: dose 0.1-10 µM
Chain of Mitogen-activated protein kinase 11 (Homo sapiens) (Q15759 whole entry): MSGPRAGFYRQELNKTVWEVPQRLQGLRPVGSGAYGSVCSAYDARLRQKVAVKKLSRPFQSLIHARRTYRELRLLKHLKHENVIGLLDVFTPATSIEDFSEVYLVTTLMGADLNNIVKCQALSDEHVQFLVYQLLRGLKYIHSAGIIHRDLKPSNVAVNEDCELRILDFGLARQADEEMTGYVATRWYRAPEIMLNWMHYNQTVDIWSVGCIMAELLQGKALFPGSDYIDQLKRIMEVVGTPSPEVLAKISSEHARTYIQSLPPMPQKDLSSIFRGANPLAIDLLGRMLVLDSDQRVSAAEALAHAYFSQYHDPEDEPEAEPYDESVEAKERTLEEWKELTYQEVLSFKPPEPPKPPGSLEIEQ

[24] = target: T5, Serine/threonine protein kinase YCK2 (Candida albicans (strain SC5314 / ATCC MYA-2876) (Yeast)) (UniProt A0A1D8PKB4); settings: HEK293, dose 10.0 µM
T5 sequence (whole entry): T2 sequence (A0A1D8PKB4 whole entry)

[25] = target: T5, Serine/threonine protein kinase YCK2 (Candida albicans (strain SC5314 / ATCC MYA-2876) (Yeast)); settings: HEK293, dose 10.0 µM; remark: listed apart in the source
HEK293 [26] = settings: Candida albicans, dose 10.0 µM
HEK293 [27] = settings: Candida albicans, dose 10.0 µM; remark: listed apart in the source
HEK293 [28] = settings: Candida albicans, dose 10.0 µM; remark: listed apart in the source
[29] = target: Casein kinase I isoform gamma-2 (Homo sapiens) (UniProt P78368); assay: Binding affinity to human CK1gamma 2 transfected in HEK293 cells at 0.1 to 10 uM by MIB/MS competition assay; assay type: cell-based; settings: dose 0.1-10 µM
Chain of Casein kinase I isoform gamma-2 (Homo sapiens) (P78368 whole entry, looked up, canonical isoform): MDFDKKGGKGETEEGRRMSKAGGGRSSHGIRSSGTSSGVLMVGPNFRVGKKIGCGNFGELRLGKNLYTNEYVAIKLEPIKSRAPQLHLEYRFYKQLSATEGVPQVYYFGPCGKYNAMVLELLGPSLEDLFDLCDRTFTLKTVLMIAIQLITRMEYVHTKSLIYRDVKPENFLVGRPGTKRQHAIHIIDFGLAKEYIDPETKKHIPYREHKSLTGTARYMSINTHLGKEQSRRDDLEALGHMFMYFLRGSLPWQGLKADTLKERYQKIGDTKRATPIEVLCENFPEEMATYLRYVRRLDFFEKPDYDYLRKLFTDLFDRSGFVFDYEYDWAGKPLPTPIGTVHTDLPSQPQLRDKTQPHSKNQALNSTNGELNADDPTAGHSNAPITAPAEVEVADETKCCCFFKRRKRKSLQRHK

[30] = target: T6, Activin receptor type-1B (Homo sapiens) (UniProt P36896); assay: Binding affinity to human ALK4 transfected in HEK293 cells at 0.1 to 10 uM by MIB/MS competition assay; assay type: cell-based; settings: dose 0.1-10 µM
T6 sequence (whole entry): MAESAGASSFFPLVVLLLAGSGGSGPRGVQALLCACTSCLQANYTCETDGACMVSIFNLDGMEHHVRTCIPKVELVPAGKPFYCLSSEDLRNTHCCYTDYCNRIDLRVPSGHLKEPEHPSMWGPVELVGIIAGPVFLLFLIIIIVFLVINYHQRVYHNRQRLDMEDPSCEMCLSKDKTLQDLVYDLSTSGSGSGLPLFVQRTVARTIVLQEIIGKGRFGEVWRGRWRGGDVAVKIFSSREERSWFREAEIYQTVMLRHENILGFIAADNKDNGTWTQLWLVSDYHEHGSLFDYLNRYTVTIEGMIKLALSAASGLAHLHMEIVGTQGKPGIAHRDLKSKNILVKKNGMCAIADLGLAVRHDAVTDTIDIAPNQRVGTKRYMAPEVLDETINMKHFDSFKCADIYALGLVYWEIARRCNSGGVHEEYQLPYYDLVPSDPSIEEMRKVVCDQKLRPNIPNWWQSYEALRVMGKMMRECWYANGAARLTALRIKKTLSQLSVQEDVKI

[31] = target: T5, Serine/threonine protein kinase YCK2 (Candida albicans (strain SC5314 / ATCC MYA-2876) (Yeast)); assay: Binding affinity to Candida albicans Yck2 assessed as target engagement by MIB/MS competition assay

T1 sequence (Q16539 whole entry): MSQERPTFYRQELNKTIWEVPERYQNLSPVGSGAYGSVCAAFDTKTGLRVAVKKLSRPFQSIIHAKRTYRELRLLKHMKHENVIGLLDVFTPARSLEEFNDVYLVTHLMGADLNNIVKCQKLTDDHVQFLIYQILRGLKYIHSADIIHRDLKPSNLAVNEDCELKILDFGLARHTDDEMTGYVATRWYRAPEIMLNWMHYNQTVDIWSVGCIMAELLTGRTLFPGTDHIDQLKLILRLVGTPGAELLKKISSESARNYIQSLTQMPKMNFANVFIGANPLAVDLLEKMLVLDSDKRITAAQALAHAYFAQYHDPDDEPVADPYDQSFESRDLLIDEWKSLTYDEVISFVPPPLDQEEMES

CC(C)(C)n1nc(Cc2cccc3ccccc23)c2c(N)ncnc21
IC50 [1]: 750 nM
IC50 [2]: > 8000 nM
IC50 [3]: > 10000 nM
IC50 [4]: 14 nM
IC50 [5]: 1600 nM

CC(C)n1nc(-c2cc3cc(O)ccc3[nH]2)c2c(N)ncnc21
inhibition [6]: > 50%

Nc1nc(Nc2ccc(S(N)(=O)=O)cc2)n(C(=S)Nc2c(F)cccc2F)n1
IC50 [7]: > 20000 nM
IC50 [1]: > 20000 nM
IC50 [2]: 470 nM
IC50 [8]: > 10 µM
IC50 [4]: > 10000 nM
inhibition [6]: 25%

Cc1nc(N)sc1-c1ccnc(Nc2ccc(N3CCOCC3)cc2)n1 [CYC-116]
IC50 [1]: > 20000 nM
IC50 [8]: > 10 µM
IC50 [4]: ~10000 nM
inhibition [6]: > 50%

Cc1ccc2c(-c3ccncc3)c(-c3ccc(F)cc3)nn2c1
IC50 [3]: 230 nM
IC50 [4]: 780 nM
IC50 [5]: 44 nM

CC(=O)c1cnc2ccc(-c3cc(Cl)c(O)c(Cl)c3)nc2c1N[C@H]1CC[C@H](CN(C)C)CC1
IC50 [1]: 40 nM
IC50 [8]: 0.66 µM
IC50 [5]: > 10000 nM

c1ccc(-c2n[nH]cc2-c2ccnc3ccccc23)nc1
IC50 [1]: 2600 nM
IC50 [3]: 2800 nM
inhibition [6]: < 25%
IC50 [5]: 760 nM
Activity (Candida albicans [9]): Active; Weakly Active
Activity (Candida albicans [10]): Active
Activity (Candida albicans [11]): Active
Activity (Candida albicans [12]): inactive
Activity (Candida albicans [13]): inactive
Activity (Candida albicans [14]): inactive
Activity (Candida albicans [15]): inactive
Activity (Candida albicans [16]): Active
Activity (Candida albicans [17]): Active
Activity (Candida albicans [18]): inactive

N#Cc1ccn2c(-c3ccncc3)c(-c3ccc(F)cc3)nc2c1
IC50 [4]: > 10000 nM
inhibition [6]: 25%
Activity [19]: Active
Activity [20]: Active
Activity [21]: Active
Activity [22]: Active
Activity [23]: Active
log2FC [24]: -3.5
log2FC [25]: -2.2
log2FC (HEK293 [26]): -1.4
log2FC (HEK293 [27]): -2.2
log2FC (HEK293 [28]): -1

CC(C)[C@H](CO)Nc1nc(Nc2cc(N)cc(Cl)c2)c2ncn(C(C)C)c2n1 [AMINOPURVALANOL]
IC50 [7]: > 20000 nM
IC50 [1]: > 20000 nM
IC50 [2]: > 8000 nM
IC50 [8]: > 10 µM
IC50 [3]: > 10000 nM
IC50 [4]: > 10000 nM
inhibition [6]: 25%

N#Cc1ccc2c(-c3ccncc3)c(-c3ccc(F)cc3)nn2c1
IC50 [4]: > 10000 nM
inhibition [6]: 25%
IC50 [5]: 80 nM
Activity [19]: Active
Activity [20]: Active
Activity [21]: Active
Activity [22]: Active
Activity [29]: Active
Activity [30]: Active

CC(C)(C)c1cnc(CSc2cnc(NC(=O)C3CCNCC3)s2)o1 [BMS-387032]
IC50 [2]: > 8000 nM
IC50 [8]: > 10 µM
inhibition [6]: 25%

CNC(=O)c1nn(C)c2c1C(C)(C)Cc1cnc(Nc3ccc(N4CCN(C)CC4)cc3)nc1-2 [MILCICLIB]
IC50 [7]: 250 nM
IC50 [1]: > 20000 nM
IC50 [2]: 770 nM
IC50 [8]: 1.1 µM
IC50 [3]: 200 nM

C[C@@H](N)c1ccc(C(=O)Nc2ccnc3[nH]ccc23)cc1 [Y-39983]
IC50 [1]: > 20000 nM
IC50 [2]: > 8000 nM
IC50 [8]: > 10 µM
IC50 [3]: > 10000 nM
IC50 [4]: > 10000 nM
inhibition [6]: 25%

Cc1occc1-c1nc(N)c(OC[C@@H](N)Cc2c[nH]c3ccccc23)cc1-c1cc2c(C)n[nH]c2cn1
IC50 [2]: 180 nM
IC50 [8]: 3.7 µM
IC50 [3]: 1400 nM
IC50 [4]: 620 nM

CN1CCC(F)(Cn2cnc(-c3ccc(F)cn3)c2-c2ccnc3[nH]ccc23)CC1
IC50 [7]: 14 nM
IC50 [2]: 640 nM
IC50 [8]: > 10 µM
IC50 [4]: 82 nM

Cc1n[nH]c2ccc(-c3cc(OC[C@@H](N)Cc4ccccc4)cnc3-c3ccoc3)cc12
IC50 [8]: 0.1 µM
IC50 [3]: 100 nM
IC50 [4]: 200 nM
Activity [31]: Dose-dependent-effect
